ChEMBL document CHEMBL1131842, “Synthesis and estrogen receptor binding affinity of a porphyrin-estradiol conjugate for targeted photodynamic therapy of cancer” (Bioorg Med Chem Lett, 1999)

Target: Estrogen receptor (Homo sapiens, UniProt Q92731+P03372)
Assay: Displacement of [3H]estradiol from estrogen receptor-ligand binding domain
Type: protein assay

C[C@]12CC(CCOC(=O)CCCNC(=O)c3ccc(-c4c5ccc([nH]5)c(-c5ccccc5)c5nc(c(-c6ccccc6)c6nc(c(-c7ccccc7)c7ccc4[nH]7)C=C6)C=C5)cc3)[C@@H]3c4ccc(O)cc4CC[C@H]3[C@@H]1CCC2O (stereo partly specified)
EC50: 0.274 µM
